Test results: US9079970B2, “Methods and compositions for specific modulation of MCL-1” (Dana Farber Cancer Institute, Inc., priority 2008, dated 2015)
“Also recorded” adds a separate entry of the source. Where a SMILES comes first, the peptide text is derived from it. Bridges are numbered along the chain shown (N, C = ends). [ ]: non-standard residue; d: D form. S5 = C=CCCC[C@](C)(N)C(=O)O

Assays:
Mcl-1 ΔNΔC [1] = target: T1, Mcl-1 ΔNΔC (Homo sapiens, UniProt Q07820); test: Fluorescence polarization direct binding of FITC-SAHBs to MCL-1ΔNΔC; conditions: FPA
T1 construct: GST (N, cleaved yes); made in house; host or cells: Escherichia coli BL21 (DE3), pGEX-4T
Experimental: (§1) Binding assays were performed as previously described (Pitter et al., Methods Enzymol 446, 387 (2008). Briefly, FITC-SAHB (50 nM) was added to serial dilutions of FPLC-purified recombinant protein in binding buffer (50 mM Tris, 100 mM NaCl, pH 8.0). For competition assays, serial dilutions of acetylated MCL-1 SAHBs were mixed with FITC-BAK SAHB (25 nM), followed by addition of MCL-1ΔNΔC (100 nM) diluted in binding buffer (50 mM Tris, 100 mM NaCl, pH 8.0). Multiwell plates were incubated in the dark at room temperature until equilibrium was reached and fluorescence polarization (mP units) was measured by microplate reader (SpectraMax, Molecular Devices). For direct binding experiments, dissociation constants (KD) were calculated by nonlinear regression analysis of dose-response curves using Prism software (Graphpad). For competition experiments, Ki values were determined by nonlinear regression analysis of dose-response curves using a one-site competition model.
To measure the binding activity of SAHBs for MCL-1, fluorescence polarization binding assays were performed (FIG. 8). […] Fluorescence polarization was measured on a BMG POLARstar Optima or Spectramax and dissociation constants determined by nonlinear regression analysis using Prism software 4.0 (Graphpad) (FIG. 8). […]

recombinant BCL-XLΔC = recombinant BCL-XLΔC (Homo sapiens, UniProt Q07817); test: Fluorescence polarization direct binding of FITC-SAHBs to BCL-XLΔC; conditions: FPA
Experimental: as §1
Recombinant carboxy-terminal deleted anti-apoptotic proteins were expressed using the pGEX-4T vector, and purified as described for rMCL-1. The purified proteins were incubated with FITC-SAHBs, and binding affinities were analyzed by fluorescence polarization assay as described above. […] Optionally, design and optimization of tailored SAHB compounds for anti-apoptotic targeting also employed computational modeling.

recombinant BCL-wΔC = test: Fluorescence polarization direct binding of FITC-SAHBs to BCL-wΔC; conditions: FPA
Experimental: as §1
(§2) Compounds that bound MCL-1 with high affinity were analyzed for MCL-1 selectivity by measuring SAHB affinities for recombinant BCL-XLΔC, BCL-WΔC and BFL-1/A1ΔC (FIG. 8B). […] The purified proteins were incubated with FITC-SAHBs, and binding affinities were analyzed by fluorescence polarization assay as described above. […]

[2] = test system: MCL-1ΔNΔC, BCL-2ΔC, BCL-XLΔC, BCL-wΔC and BFL-1/A1ΔC; test: FPA selectivity across panel of anti-apoptotic proteins; assay type: binding; conditions: FPA against anti-apoptotic panel
Experimental: as §1
Compounds that bound MCL-1 with high affinity were analyzed for MCL-1 selectivity by measuring SAHB affinities for recombinant BCL-XLΔC, BCL-WΔC and BFL-1/A1ΔC (FIG. 8B). Recombinant carboxy-terminal deleted anti-apoptotic proteins were expressed using the pGEX-4T vector, and purified as described for rMCL-1. The purified proteins were incubated with FITC-SAHBs, and binding affinities were analyzed by fluorescence polarization assay as described above. […] Optionally, design and optimization of tailored SAHB compounds for anti-apoptotic targeting also employed computational modeling.
After the experiments set forth above, further members of the library of stabilized alpha-helices of BCL-2 domains (SAHBs) modeled after the BH3 domains of BCL-2 family proteins were generated in order to identify potent and selective inhibitors of MCL-1. The native alpha-helical structure of BH3 domains was reinforced by incorporating non-natural amino acids containing olefin tethers at the (i, i+4) positions of the non-interacting face, followed by ruthenium catalyzed olefin metathesis to yield a panel of stapled BH3 domains (FIG. 7). Fluorescence polarization assays (FPA) were performed to measure the binding affinity of fluorescently labeled SAHBs for recombinant human MCL-1ΔNΔC (amino acids 172-320), a deletion construct that contains the BH3-binding pocket and affords enhanced expression, purity, and stability. […] To identify MCL-1-selective SAHBs, we first screened for recombinant BCL-XLΔC binding, which eliminated PUMA, BID, BIM, BOK, BAX, and BAK SAHBs and then for recombinant BFL1/A1ΔC binding, which eliminated NOXA SAHB.

U937 AML cells = test: Cell viability by MTT assay, U937; assay type: cell-based; conditions: combined with low-dose BIM SAHB
Description: A cell-based screen was used to evaluate the pro-apoptotic activity of MCL-1-targeting SAHBs in MCL-1-dependent hematologic cancer cell lines, including U937 (histiocytic lymphoma), Pfeiffer (diffuse large B-cell lymphoma), OCI-AML3 (acute myeloid leukemia), K562 (chronic myelogenous leukemia) and OPM-2 (multiple myeloma) cells.

Jurkat cells = test: Live confocal microscopy of cellular uptake and localization; assay type: cell-based; conditions: FITC-SAHB
Experimental: In addition to FACS-based analysis, live confocal microscopy was used to visualize cellular uptake and intracellular localization of MCL-1 targeting SAHBs. For live confocal microscopy, Jurkat cells were incubated with FITC-SAHB and live cell organelle markers (e.g., dextran to label pinosomes, Mitotracker to label mitochondria). At defined time points (e.g., 4, 8, 12, and 24 hours), cells were washed twice with PBS, resuspended in PBS, wet mounted and imaged by confocal microscopy. […] Cell permeability and intracellular targeting can also be optimized through site-directed mutagenesis; for example, converting negatively charged residues to neutral or positively charged residues (e.g. SEQ ID NO: 39) can enhance cellular uptake as was previously reported (Bernal et al JACS, 2007).

recombinant BFL-1/A1ΔC = test: Fluorescence polarization direct binding of FITC-SAHBs to BFL-1/A1ΔC; conditions: FPA
Experimental: as §1, §2

[3] = target: T2, MCL-1/BAK interaction in U937 AML cells (Homo sapiens, UniProt Q07820); test: MCL-1 immunoprecipitation / BAK western in U937 cells; assay type: cell-based; conditions: MCL-1 co-immunoprecipitation
T2 construct: MCL-1 over-expressing cancer cells, such as OPM2 multiple myeloma and U937 AML cells; endogenous in cells; host or cells: U937 AML cells
Experimental: After cellular lysis in 50 mM Tris (pH 7.4), 150 mM NaCl, 1 mM EDTA, 1% CHAPS and complete protease inhibitor pellet, cellular debris was pelleted at 14,000 g for 10 minutes at 4° C. The supernatant was incubated with pre-equilibrated protein A/G sepharose beads. The pre-cleared supernatant was treated with anti-MCL-1 antibody for 1.5 hours at 4° C. with rotation, followed by exposure to the protein A/G sepharose beads for 1 hour. The beads were pelleted and washed with lysis buffer for 10 minutes at 4° C. The washed beads were pelleted, heated to 90° C. for 10 minutes in SDS loading buffer, analyzed by SDS/PAGE, and immunoblotted for the known MCL-1 interactor, BAK. […] The SAHB-induced dissociation of MCL-1/BAK correlated with sensitization of U937 cells to apoptosis induction by a pro-apoptotic stimulus (see below).

Mcl-1 ΔNΔC [4] = target: T1, Mcl-1 ΔNΔC; test: MCL-1 Specific Binders | Mcl-1 ΔNΔC
Description: Table printed on a drawing sheet, FIGURE 9 A
Head of the field: MCL-1 Specific Binders | Mcl-1 ΔNΔC
(A) illustrates a table of KD values for MCL-1-specific and pan-anti-apoptotic binding SAHBs.
First copying reader's note: KD values with their ± error in the same cell; each column is one anti-apoptotic target protein.
Where the first naming reader finds the target: head: Mcl-1 ΔNΔC

T1 sequence (Q07820 172-327, stated change not applied): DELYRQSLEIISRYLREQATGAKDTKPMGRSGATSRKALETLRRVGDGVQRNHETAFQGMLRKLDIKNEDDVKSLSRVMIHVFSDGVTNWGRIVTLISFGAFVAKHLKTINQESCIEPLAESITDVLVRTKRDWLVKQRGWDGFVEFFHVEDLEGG
recombinant BCL-XLΔC, sequence (Q07817 1-209, stated change not applied): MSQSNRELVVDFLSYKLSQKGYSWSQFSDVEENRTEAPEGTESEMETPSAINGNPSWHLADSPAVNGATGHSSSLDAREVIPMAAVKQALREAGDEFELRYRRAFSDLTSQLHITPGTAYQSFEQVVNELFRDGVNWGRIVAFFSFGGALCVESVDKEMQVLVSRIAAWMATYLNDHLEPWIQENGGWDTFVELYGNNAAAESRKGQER
T2 sequence (Q07820 whole entry): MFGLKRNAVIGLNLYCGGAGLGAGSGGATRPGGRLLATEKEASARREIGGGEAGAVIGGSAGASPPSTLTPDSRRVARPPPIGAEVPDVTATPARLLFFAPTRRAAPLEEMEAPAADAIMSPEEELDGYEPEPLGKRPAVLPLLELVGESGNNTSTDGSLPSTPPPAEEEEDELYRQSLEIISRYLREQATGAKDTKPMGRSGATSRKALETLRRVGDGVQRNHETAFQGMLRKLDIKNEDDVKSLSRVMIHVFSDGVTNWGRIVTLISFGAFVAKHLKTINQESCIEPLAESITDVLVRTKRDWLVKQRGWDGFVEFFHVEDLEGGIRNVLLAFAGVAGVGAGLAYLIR

Row | Molecule | MCL-1ΔNΔC binding activity (Mcl-1 ΔNΔC [1]) | BCL-XL binding (recombinant BCL-XLΔC) | BCL-w binding (recombinant BCL-wΔC) | binding selectivity among anti-apoptotic proteins [2] | sensitization of U937 cells to BIM SAHB (U937 AML cells) | cellular uptake and intracellular localization (Jurkat cells) | BFL-1/A1 binding (recombinant BFL-1/A1ΔC) | dissociation of MCL-1/BAK interaction in U937 cells [3] | Kd (Mcl-1 ΔNΔC [4]) [nM]
1 | CC(C)C[C@H](NC(=O)[C@H](C)NC(=O)[C@@H](N)CCCCN)C(=O)N[C@@H](CCC(=O)O)C(=O)N[C@H](C(=O)N[C@@H](CC(C)C)C(=O)N[C@@H](CCCNC(=N)N)C(=O)N[C@@]1(C)CCCC=CCCC[C@@](C)(C(=O)N[C@@H](Cc2ccccc2)C(=O)N[C@@H](CCC(N)=O)C(=O)N[C@@H](CCCNC(=N)N)C(=O)N[C@@H](CC(N)=O)C(=O)N[C@@H](Cc2c[nH]cn2)C(=O)N[C@@H](CCC(=O)O)C(=O)N[C@H](C(=O)N[C@@H](C)C(=O)N[C@@H](Cc2ccccc2)C(N)=O)[C@@H](C)O)NC(=O)[C@H](CC(=O)O)NC(=O)CNC(=O)[C@H](C(C)C)NC1=O)[C@@H](C)O [MCL-1 SAHBA V220F] | binds to both MCL-1 and BCL-XL | binds to both MCL-1 and BCL-XL |  |  |  |  |  |  | 
2 | CC(C)C[C@H](NC(=O)[C@H](CCCCN)NC(=O)[C@H](CCC(N)=O)NC(=O)[C@H](CCCNC(=N)N)NC(=O)[C@H](Cc1ccccc1)NC(=O)[C@H](CC(N)=O)NC(=O)[C@H](CC(C)C)NC(=O)[C@]1(C)CCCC=CCCC[C@](C)(NC(=O)[C@H](CCCNC(=N)N)NC(=O)[C@H](CC(C)C)NC(=O)[C@H](CCC(N)=O)NC(=O)[C@@H](NC(=O)[C@H](C)NC(=O)[C@H](CO)NC(=O)[C@H](CCC(=O)O)NC(=O)[C@@H](NC(=O)[C@H](CCC(=O)O)NC(=O)[C@@H](N)CC(C)C)C(C)C)[C@@H](C)O)C(=O)N[C@@H](Cc2ccccc2)C(=O)NCC(=O)N[C@@H](CC(=O)O)C(=O)N1)C(N)=O [NOXA SAHB] (H-LEVESATQLR[S5]FGD[S5]LNFRQKL-NH2; staple 11-15; C-terminus assumed) |  | did not engage | did not engage | striking selectivity for MCL-1ΔNΔC; also recorded: selective for MCL-1 | dose-responsively sensitizes chemoresistant U937 AML cells to low-dose, pro-apoptotic BIM SAHB | striking fluorescence of pinosomes at early time points and subsequent colocalization with Mitotracker | eliminated; also recorded: did not engage | disrupts the MCL-1/BAK interaction | 
3 | LEVESXTQLXRFGDKLNFRQKL [NOXA SAHBB] |  |  |  |  |  |  |  |  | 109 ± 32
